The test system of data set [1] is hERG1a. On the set-up: method as in PMID 27260674. The conditions noted are these: read-out: IC50 in hERG1a-transfected HEK293 cells; cited from earlier work.
Data set [2] has as its system hERG1a. On the set-up: method as in PMID 27260674. The conditions noted are these: read-out: IC50 in hERG1a-injected Xenopus oocytes; cited from earlier work.
The target of a further data set is hERG1a/1b current (Homo sapiens, UniProt Q12809). The procedure: All working solutions were sterile-filtered, stored at −20 °C and thawed to room temperature before use.
Prior to electrophysiology study, the HEK293-hERG1a/1b cells were first grown in complete medium without selection antibiotics for 6 days. Approximately 5.0 × 10^5 cells were then plated onto an uncoated 96-mm cell culture dish for a maximum of 3 days. […] The cell suspension was then transferred into a 15-ml polypropylene tube and centrifuged at 100 × g for 3 min. Subsequently, the cell pellet was resuspended in extracellular solution to obtain a final density of 2 × 10^6–3 × 10^6 cells/ml and incubated on ice for 20 min to allow cell recovery. The electrophysiology studies were performed using NPC®-1 chips (Nanion Technologies, Germany) and Port-a-Patch system (Nanion Technologies, Germany) following manufacturer’s instructions, within the next 2 h. For characterization and determination of the hERG1a/1b current inhibition, a series of voltage protocols were applied as published previously.
The hERG1a/1b current was recorded in cells achieving whole-cell configuration. Briefly, a single cell was first held at −80 mV, the theoretical cardiac resting membrane potential, on the aperture of the NPC-1 chip (Nanion Technologies, Germany). To characterize the I-V relationship, the cell was depolarized to test potentials ranging from −60 mV to +50 mV for 4 s in […], followed by a 5-s step to −50 mV before returning to −80mV.
To determine the pharmacological effects of the HEK293-hERG1a/1b cells, the cells were perfused with test compound solutions using an external perfusion system. […] The mean of six successive Itail was recorded for each test concentration. Four independent experiments were conducted to derive the dose-response curve.

A further data set concerns hERG1a mRNA. The experiment in a line: RT-qPCR mRNA expression in HEK293-hERG1a/1b cells. Particulars: all concentrations, 24 h at 37 °C. Type of data set: cell-based, human. The method, then: (§1) Briefly, total cellular RNA was isolated from treated cells using RNeasy® Plus Mini kit (Qiagen, Germany) following manufacturer’s instruction. The optimized RT-qPCR assay was performed using CFX96™ real-time PCR system (Bio-Rad Laboratories Inc., USA) with the following cycle parameters: 10 min at 50 °C for reverse transcription, 1 min at 95 °C for activation of Taq polymerase, followed by 40 cycles of 10 s at 95 °C for denaturation and 30 s at 53.9 °C for annealing and data acquisition. Specifically, the assay was performed using 100 ng of total RNA and iTaq™ Universal SYBR® Green One-Step Kit (Bio-Rad Laboratories Inc., USA) in 10 µl of reaction volume. A melt curve analysis was computed at the end of the qPCR cycles to determine the specificity of the primers. The results were analyzed using CFX Manager software version 3.1 (Bio-Rad Laboratories Inc., USA). The mRNA expressions of hERG1a/1b were presented as fold changes normalized to endogenous reference genes, ACTB and GAPDH, and relative to the control gene[69]–[71]. Each experiment was conducted in triplicate and data are presented as mean fold changes of three independent experiments.

The subject of a further data set is hERG1b mRNA. The experiment in a line: RT-qPCR mRNA expression in HEK293-hERG1a/1b cells. Type of data set: cell-based, human. The conditions noted are these: all concentrations, 24 h at 37 °C. The method, then:
as §1

Another data set relates to CYP2D6. Particulars: cited from earlier work.
The subject of a further data set is Hsp90. The experiment in a line: Western blot of endogenous chaperone expression in HEK-hERG1a/1b cells. Type of data set: cell-based, human. Particulars: exposure for 24 h. The method, then: (§2) Total protein was isolated using RIPA lysis buffer system (Santa Cruz Biotechnology, Inc., USA). Equal amounts of protein samples were loaded onto 7.5% (v/v) polyacrylamide gels and were subsequently transferred to Immobilon®-P PVDF membrane (Millipore, USA) using Trans-Blot® Turbo™ Blotting System (Bio-Rad Laboratories, USA). Blots were blocked with 3% (w/v) skim milk for 1 h and probed with optimized primary antibodies against hERG1a (1:5000), hERG1b (1:1250), Hsp70 (1:10, 000), Hsp90 (1:5000) and β-actin (1:5000) overnight at 4 °C. Finally, the blots were then incubated in horseradish peroxidase (HRP) conjugated secondary antibody (1:1000) for 2.5 h followed by Clarity™ Western ECL substrate (Bio-Rad Laboratories, USA). The antibodies used for Western blotting were rabbit hERG1a polyclonal antibody (Enzo Life Sciences, USA), rabbit hERG1b polyclonal antibody (Enzo Life Sciences, USA), rabbit Hsc70/Hsp70 polyclonal antibody (Enzo Life Sciences, USA), rabbit Hsp90 polyclonal antibody (Enzo Life Sciences, USA), rabbit β-actin antibody (Cell Signaling, USA) and anti-rabbit IgG HRP-linked antibody (Cell Signaling, USA). Chemiluminescence signal was detected using ChemiDoc™ XRS Imaging System (Bio-Rad Laboratories, USA). Band densities were scanned and quantified using Image Lab Software (Bio-Rad Laboratories, USA). […]
(Immunoblotting shows a protein as a band on a membrane.)

The next data set deals with Hsp70. The description is as above. It counts as cell-based, human. The conditions noted are these: exposure for 24 h. The method, then: as §2

Like-named read-outs stand apart in the source and are kept apart here.

mitragynine: the IC50 is 1.62 µM in the data set with hERG1a [1]; 1.03 µM in the data set with hERG1a [2]; 0.333 µM at hERG1a/1b current (read-out: IC50 of hERG1a/1b current inhibition, peak tail current, step pulse protocol, HEK293-hERG1a/1b cells, four independent experiments). For the same substance, the “Hill coefficient (h)” value at hERG1a/1b current (dose-response fit of hERG1a/1b tail current inhibition) is reported as 0.61. The “effect on mRNA expression of hERG1a” value with hERG1a mRNA is listed as “did not affect”. Besides, in the data set on hERG1b mRNA, the “effect on mRNA expression of hERG1b” value is given as “did not affect”. Besides, the “effect on CYP2D6” value in the data set with CYP2D6 is reported as “potent inhibitory activity”. For the same substance, in the data set with Hsp90, the Hsp90 levels result is given as “neither Hsp70 nor Hsp90 levels were significantly altered”. In addition, the Hsp70 levels result in the data set with Hsp70 was “neither Hsp70 nor Hsp90 levels were significantly altered”.

The values above are taken from paper PMC6930223 (Scientific Reports, 2019).
